The numbers were not newly measured in patent publication US9775855B2, “Compositions comprising macrolide and tetracycline and their uses” (priority 2011, dated 2017), which cites them from elsewhere.

Like-named read-outs stand apart in the source and are kept apart here.

For data set [1] the following is noted: individuals treated for acne for an average of 9 months.
Assay in data set [2]: not given
This is another data set of the same source.

For data set [3] the following is noted: room temperature.

For the molecule `NNC(=O)c1ccncc1` [Isoniazid, 4-pyridinecarboxylic acid, hydrazide], the solubility in water result is reported as “freely soluble”.
Consider `CN(C)c1ccc(O)c2c1C[C@H]1C[C@H]3[C@H](N(C)C)C(O)=C(C(N)=O)C(=O)[C@@]3(O)C(O)=C1C2=O` [Minocycline], for which the “frequency of adverse events” value in data set [1] was “one in a million”. Moreover, the “penetration of the cerebral spinal fluid (CSF)” value in data set [2] (human beings, compared with doxycycline and other tetracyclines) was “better than doxycycline and other tetracyclines”. The “crossing the blood-brain barrier” value in data set [2] (in vivo) is “capable of crossing the blood-brain barrier”.
With `NC(=O)c1cnccn1` [Pyrazinamide, pyrazinecarboxamide], the solubility in water entry is reported as “sparingly soluble”. For the same molecule, the stability result in data set [3] is “stable at room temperature”.
Consider `CO[C@H]1/C=C/O[C@@]2(C)Oc3c(C)c(O)c4c(O)c(c(/C=N/N5CCN(C)CC5)c(O)c4c3C2=O)NC(=O)/C(C)=C\C=C\[C@H](C)[C@H](O)[C@@H](C)[C@@H](O)[C@@H](C)[C@H](OC(C)=O)[C@@H]1C` [Rifampin, 3-[[(4-methyl-1-piperazinyl)imino]-methyl]-rifamycin], for which the solubility in water entry (at neutral pH) is “very slightly soluble”.
